Assay results reported in US12295997B2, “Prostate neoantigens and their uses” (Janssen Biotech, Inc., priority 2020, dated 2025).

Key:
[1] = test system: CD8+ and CD4+ T cells (autologous CD3+ Pan-T cells isolated from human normal PBMCs); test: Exogenous autologous normal donor restimulation assay (15-mer overlapping peptide pools on CD1c+ dendritic cells, TNFα/IFNγ flow cytometry); format: cell-based; details: Table 25, 15-mer overlapping peptide pool; for Maximum Fold Change Over Background CD4+ cells: TNFα+IFNγ+ CD4+ T cells; for Maximum Fold Change Over Background CD4+ cells / Maximum Fold Change Over Background CD8+ cells: highest fold change over negative control across normal donors; for Maximum Fold Change Over Background CD8+ cells: TNFα+IFNγ+ CD8+ T cells; for Maximum Frequency of TNFα/IFNγ Double Positive CD4+ T cells / Maximum Frequency of TNFα/IFNγ Double Positive CD8+ T cells: highest frequency across normal donors
Outline: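 Autologous CD3+ Pan-T cells from normal donors were co-cultured 12 days with irradiated CD1c+ DCs pulsed with 15-mer overlapping neoantigen peptide pools at 2.5–10 μg/mL, with IL-15 and IL-2 support. Cells were restimulated on day 11, then TNFα/IFNγ double-positive CD8+ and CD4+ frequencies read by flow. Positive means ≥3-fold over DMSO and ≥0.01%.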

[2] = test system: CD8+ and CD4+ T cells (autologous CD3+ Pan-T cells isolated from human normal PBMCs); test: Endogenous autologous normal donor restimulation assay (Ad5-transduced CD1c+ dendritic cells, TNFα/IFNγ flow cytometry); format: cell-based; details: Table 27, endogenous expression, peptide pool restimulation, highest across sixteen normal donors
Procedure: CD1c+ Dendritic Cells (DC) isolated from human normal PBMCs were thawed using media (IMDM (Gibco) supplemented with glutamine, HEPES, 5% human serum (Sigma), and 1×Pen-Strep). DC cells were resuspended in media supplemented with IL-4 (Peprotech, 80 ng/mL) and GM-CSF (Gibco, 80 ng/mL), plated in 6 well microplates, and rested overnight at 37° C. (5% CO2). The following day, DC cells were counted and plated in a 96 well round bottom microplate at a concentration of 30,000 viable cells per well. Ad5 vectors (Vector Biolabs) were dilute in media to an MOI (Multiplicity Of Infection) of 5000 based on Plaque Forming Units. Ad5 vectors for the CEF pool and a “null” were used as controls. DCs were transduced with Ad5 vectors overnight at 37° C. (5% CO2). The following day, the Ad5 vectors were washed off the plate by three sequential centrifugation/aspiration steps using sterile Phosphate Buffered Saline. After the final wash, transduced DCs were resuspended in 100 μL media. Autologous CD3+ Pan-T cells isolated from human normal PBMCs were thawed using media. Pan-T cells were added to the irradiated DCs at 300,000 viable cells per well (100 μL/well). Human IL-15 (Peprotech) was added to all wells at final concentration of 10 ng/mL.
Plates were incubated at 37° C. (5% CO2) for a total of 12 days. Media was refreshed every 2-3 days with IL-15 (10 ng/mL final concentration) and IL-2 (R&D systems, 10 IU/mL final concentration). On day 11 lyophilized peptides (15-mer overlapping peptides) were solubilized in 100% DMSO and pooled by neoantigen to between 5 mg/mL and 20 mg/mL. Neoantigen peptides pools were added to cells for a final concentration of 2.5 μg/mL to 10 μg/mL. CEF Peptide Pool “Plus” (Cellular Technologies, Ltd.) was utilized as a positive control and DMSO at the same final concentration as the experimental peptides was utilized as a negative control. Protein Inhibitor Cocktail (eBioscience) was added to every well and plate was incubated overnight at 37° C. (5% CO2).
On day 12, cells were stained for intracellular flow cytometry analysis. The cells were washed with PBS and stained with Live/Dead Fixable Aqua Dead Cell stain (Thermo-Fisher). Following the live/dead stain, cells were blocked using Biotin-Free Fc Receptor Blocker (Accurate Chemical & Scientific Corp). Extracellular cellular flow panel ([…] per well in 50 μL) consisted of CD3 PerCP-Cy5.5 (Biolegend), CD4 BV421 (Biolegend), and CD8 APC-Cy7 (Biolegend). After extracellular staining, cells were fixed using Foxp3/fTranscription Factor Staining Buffer Set (eBioscience) and stained for intracellular proteins (1:50 dilution) using TNFα FITC (R&D Systems) and IFNγ BV785 (Biolegend). Cells were washed and resuspended in stain buffer and analyzed using a BD Celesta flow cytometer.
Flow cytometry cell staining analysis was completed using FlowJo v10. Cells were gated on live, singlet, CD3+ cells. The CD8+ and CD4+ T cells were analyzed for TNFα/IFNγ expression and the frequency of double positive TNFα/IFNγ CD8+ and the frequency of double positive TNFα/IFNγ CD4+ T cells were recorded. Responses were assessed to be positive when the frequency of double positive TNFα/IFNγ CD8+ or TNFα/IFNγ CD4+ T cells due to stimulation with an experimental peptide pool was increased greater than or equal to 3-fold over the DMSO only negative control for that donor and at least 0.01%.
For three of the neoantigens, an Ad5 vector was designed to transduce normal Dendritic cells with the neoantigens. This assay assessed the ability of the endogenously expressed and presented neoantigens to activate autologous T cells following overlapping 15-mer peptide pools restimulation using the endogenous autologous normal donor restimulation assay described in Example 1 utilizing TNFα and IFNγ production by CD8^+ and CD4^+ T cells as a readout. […] Sixteen donors were used to assess endogenous immunogenicity.

DGHSYTSKVNCLLLQDGFHGCVSITGAAGRRNLSIFLFLMLCKLEFHAC (listed as Homo sapiens) [AS55, SPOCK1 alternative splicing]
Maximum Fold Change Over Background CD4+ cells [1]: 19.38 | Maximum Fold Change Over Background CD8+ cells [1]: 1354.17 | Maximum Frequency of TNFα/IFNγ Double Positive CD4+ T cells [1]: 0.310 | Maximum Frequency of TNFα/IFNγ Double Positive CD8+ T cells [1]: 32.500 | Maximum Fold Change Over Background CD4+ cells [2]: 3.50 | Maximum Fold Change Over Background CD8+ cells [2]: 213.88 | Maximum Frequency of TNFα/IFNγ Double Positive CD4+ T cells [2]: 0.063 | Maximum Frequency of TNFα/IFNγ Double Positive CD8+ T cells [2]: 2.05

WKFEMSYTVGGPPPHVHARPRHWKTDR (listed as Homo sapiens) [AS18, NWD1 alternative splicing]
Maximum Fold Change Over Background CD4+ cells [1]: 7.51 | Maximum Fold Change Over Background CD8+ cells [1]: 9.17 | Maximum Frequency of TNFα/IFNγ Double Positive CD4+ T cells [1]: 0.053 | Maximum Frequency of TNFα/IFNγ Double Positive CD8+ T cells [1]: 0.110 | Maximum Fold Change Over Background CD4+ cells [2]: 1.90 | Maximum Fold Change Over Background CD8+ cells [2]: 4.09 | Maximum Frequency of TNFα/IFNγ Double Positive CD4+ T cells [2]: 0.046 | Maximum Frequency of TNFα/IFNγ Double Positive CD8+ T cells [2]: 0.36
